Measured values reported in the supplement of paper PMC10307832.

Columns and labels:
Test in all cases: relative viability (nuclei count vs DMSO), 5 days (fraction); higher = more cells survive
EHT 1864 + Pemetrexed = compound: C1COCCN1CC2=CC(=O)C(=CO2)OCCCCCSC3=C4C=CC(=CC4=NC=C3)C(F)(F)F [EHT 1864] + Nc1nc2[nH]cc(CCc3ccc(C(=O)N[C@@H](CCC(=O)O)C(=O)O)cc3)c2c(=O)[nH]1 [Pemetrexed] (partner 0.2 µM)
Procedure, shortened: (§1)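 Nuclei were stained with Hoechst during a one-step fixation (final 0.05% Triton X-100, 1% formaldehyde, 1 ug/ml Hoechst) carried out 5 days after dosing, then counted on 4× images. The cells, lung cancer lines in 1536-well plates, had been dosed by pin tool the day after seeding with one drug alone or a fixed anchor-drug dose plus five library-drug doses (not always all listed) in √10 steps. Relative viability is the nuclei count in treated wells divided by that in vehicle wells, and each value is the median of duplicate plates.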

EHT 1864 + Lapatinib = compound: C1COCCN1CC2=CC(=O)C(=CO2)OCCCCCSC3=C4C=CC(=CC4=NC=C3)C(F)(F)F [EHT 1864] + CS(=O)(=O)CCNCc1ccc(-c2ccc3ncnc(Nc4ccc(OCc5cccc(F)c5)c(Cl)c4)c3c2)o1 [Lapatinib] (partner 2 µM)
Procedure, shortened: as §1

EHT 1864 + Dasatinib = compound: C1COCCN1CC2=CC(=O)C(=CO2)OCCCCCSC3=C4C=CC(=CC4=NC=C3)C(F)(F)F [EHT 1864] + Cc1nc(Nc2ncc(C(=O)Nc3c(C)cccc3Cl)s2)cc(N2CCN(CCO)CC2)n1 [Dasatinib] (partner 0.075 µM)
Procedure, shortened: as §1

EHT 1864 + Crizotinib = compound: C1COCCN1CC2=CC(=O)C(=CO2)OCCCCCSC3=C4C=CC(=CC4=NC=C3)C(F)(F)F [EHT 1864] + C[C@@H](Oc1cc(-c2cnn(C3CCNCC3)c2)cnc1N)c1c(Cl)ccc(F)c1Cl [Crizotinib] (partner 1 µM)
Procedure, shortened: as §1

Row | Cell Line | relative viability (EHT 1864 + Pemetrexed; first compound 0.04 µM) | relative viability (EHT 1864 + Pemetrexed; first compound 0.4 µM) | relative viability (EHT 1864 + Pemetrexed; first compound 1.265 µM) | relative viability (EHT 1864 + Pemetrexed; first compound 4 µM) | relative viability (EHT 1864 + Lapatinib; first compound 0.04 µM) | relative viability (EHT 1864 + Lapatinib; first compound 0.4 µM) | relative viability (EHT 1864 + Lapatinib; first compound 1.265 µM) | relative viability (EHT 1864 + Lapatinib; first compound 4 µM) | relative viability (EHT 1864 + Dasatinib; first compound 0.04 µM) | relative viability (EHT 1864 + Dasatinib; first compound 0.4 µM) | relative viability (EHT 1864 + Dasatinib; first compound 1.265 µM) | relative viability (EHT 1864 + Dasatinib; first compound 4 µM) | relative viability (EHT 1864 + Crizotinib; first compound 0.04 µM) | relative viability (EHT 1864 + Crizotinib; first compound 0.4 µM) | relative viability (EHT 1864 + Crizotinib; first compound 1.265 µM) | relative viability (EHT 1864 + Crizotinib; first compound 4 µM) | relative viability (EHT 1864 + Pemetrexed; first compound 0.1265 µM) | relative viability (EHT 1864 + Lapatinib; first compound 0.1265 µM) | relative viability (EHT 1864 + Dasatinib; first compound 0.1265 µM) | relative viability (EHT 1864 + Crizotinib; first compound 0.1265 µM)
1 | NCI-H1944 | 0.669 | 0.64 | 0.58 | 0.693 | 0.907 | 0.916 | 0.858 | 0.817 | 0.238 | 0.208 | 0.228 | 0.21 | 1.18 | 1.13 | 1.04 | 1.15 | – | – | – | –
2 | NCI-H1563 | 0.682 | 0.742 | 0.626 | 0.74 | 1.01 | 0.953 | 0.949 | 0.813 | 0.437 | 0.469 | 0.43 | 0.489 | 0.89 | 0.916 | 0.827 | 0.656 | 0.709 | 0.986 | 0.466 | 0.883
3 | HCC-827 | 0.279 | 0.227 | 0.3 | 0.235 | 0.233 | 0.219 | 0.164 | 0.191 | 0.358 | 0.268 | 0.248 | 0.269 | 0.963 | 0.931 | 0.844 | 0.921 | 0.27 | 0.204 | 0.328 | 0.759
4 | NCI-H2228 | 0.323 | 0.318 | – | 0.34 | 1.08 | 1.03 | 1.13 | 1.02 | 0.485 | 0.418 | 0.448 | 0.496 | 0.523 | 0.509 | 0.341 | 0.361 | 0.341 | 0.68 | 0.456 | 0.479
5 | NCI-H358 | 0.173 | 0.178 | 0.189 | 0.168 | 0.477 | 0.441 | 0.413 | 0.434 | 0.215 | 0.17 | 0.174 | 0.186 | 0.604 | 0.616 | 0.517 | 0.579 | 0.169 | – | 0.145 | –
6 | EMC-BAC-2 | 0.454 | 0.491 | 0.439 | 0.432 | 0.901 | 0.765 | 0.845 | 0.882 | 0.359 | 0.338 | 0.276 | 0.325 | 0.752 | 0.72 | 0.749 | 0.817 | 0.421 | 0.765 | 0.342 | 0.616
7 | NCI-H23 | 0.715 | 0.632 | 0.671 | 0.748 | 0.927 | 1.05 | 0.938 | 0.928 | 0.741 | 0.522 | 0.481 | 0.779 | 0.488 | 0.513 | 0.496 | 0.5 | 0.549 | – | 0.536 | –
8 | RERF-LC-KJ | 0.46 | 0.484 | 0.462 | 0.504 | 0.916 | 0.925 | 0.798 | 0.854 | 0.825 | 0.795 | 0.772 | 0.682 | 0.794 | 0.769 | 0.784 | 0.787 | 0.443 | 0.913 | 0.793 | 0.816
9 | SK-MES-1 | 0.93 | 0.857 | 0.882 | 0.85 | 0.469 | 0.517 | 0.439 | 0.443 | 0.427 | 0.44 | 0.423 | 0.333 | 1 | 1.04 | 0.968 | 0.996 | 0.852 | 0.48 | 0.409 | 0.972
10 | LC-2-ad | 0.265 | 0.247 | 0.274 | 0.308 | 0.993 | 0.954 | 0.904 | 0.835 | 0.65 | 0.617 | 0.54 | 0.659 | 0.493 | 0.432 | 0.526 | 0.564 | 0.271 | – | – | 0.454
11 | HCC-15 | 0.224 | 0.24 | 0.226 | 0.218 | 0.859 | 0.872 | 0.76 | 0.873 | 0.56 | 0.623 | 0.618 | 0.543 | 0.752 | 0.801 | 0.82 | 0.821 | – | 0.61 | – | 0.635
12 | NCI-H2405 | 1.13 | 1.03 | 1.07 | 0.973 | 1.1 | 1.11 | – | 1.13 | 0.205 | 0.241 | 0.227 | 0.234 | 0.835 | 0.837 | 0.816 | 0.918 | 0.945 | 1.02 | 0.196 | 0.809
13 | LXF-289 | 0.857 | 0.835 | 0.769 | 0.843 | 0.883 | 0.883 | 0.851 | 0.799 | 0.237 | 0.253 | 0.171 | 0.207 | 0.802 | 0.752 | 0.706 | 0.688 | 0.894 | 0.821 | 0.239 | 0.791
14 | CAL-12T | 1.08 | 1.09 | 1.18 | 0.964 | 0.63 | 0.677 | 0.675 | 0.799 | 0.54 | 0.409 | 0.353 | 0.483 | 0.722 | 0.663 | 0.653 | 0.831 | 1.12 | 0.562 | 0.38 | 0.635
